Reference: US20090176742A1, “METHODS RELATING TO THE TREATMENT OF FIBROTIC DISORDERS” (UNIVERSITY OF WASHINGTON, priority 2005, published 2009)

Columns and labels:
[1] = test system: TCF/β-catenin transcription; test: Bat-Gal transgenic mice given intratracheal bleomycin; lung sections stained with X-Gal (reporter for TCF/β-catenin transcription); type: in vivo; conditions: ICG-001 5 mg/Kg/day via minipump (subcutaneously)
Description: FIG. 14. FIG. 14A-C depicts lung sections taken from Bat-Gal transgenic mice given intratracheal saline or bleomycin and either treated with ICG-001 (5 mgs/Kg/day subcutaneously) or saline as vehicle control. The lungs were sectioned and stained with X-Gal (blue color.) FIG. 14A, intratracheal bleo+saline; FIG. 14B, intracheal bleo+ICG-001; FIG. 14C, saline+saline.
Using this murine model of pulmonary fibrosis in transgenic Bat-Gal mice, ICG-001 5 mg/Kg/day, administered via minipump) blocked >95% of bleomycin-induced TCF/β-catenin transcription.
These mice have a Beta-Galactosidase transgene driven by a TCF/Catenin driven promoter (i.e. a read out for activated Wnt/catenin signaling). The mice were given intratracheal saline or bleomycin and either treated with ICG-001 (5 mgs/Kg/day subcutaneously) or saline as vehicle control. The mice were sacrificed and the lungs sectioned and stained with X-Gal (blue color) A) intratracheal bleo+saline. B) intracheal bleo+ICG-001 C) saline+saline.
The dose was selected because ICG-001 reduces TCF/β-Catenin driven β-Galactosidase expression >95% at 5 mgs/Kg/day.

[2] = test system: C57/B16 mice treated with intratracheal bleomycin; test: Murine model of bleomycin induced pulmonary fibrosis; lung sections stained with trichrome for collagen, plus body weight and survival; type: in vivo
Text: FIG. 15. FIG. 15 depicts lung sections taken from C57/B16 mice treated with intratracheal bleomycin (lower left) or saline (upper left) for 5 days and stained with trichrome ([…]) to stain collagen.
Murine models of bleomycin induced fibrosis have been developed in order to study […] disease progression.
There is an absence of airway epithelium in lower left compared to upper left (see arrow heads) and extensive collagen deposition (lower left). […] Of interest is the upper right (saline treatment) showing lack of normal airway epithelialization, extensive collagen deposition and intra-airway hypercellularity (fibroblasts and inflammatory influx).
The procedures were performed using the animal model as described in Example 2 (FIG. 15), and the sectioned lungs were stained for collagen.

S100A4 = test: RT-PCR for S100A4 in bleomycin treated mice; type: in vivo; conditions: ICG-001 5 mgs/Kg/day s.c.
Text: (§1) FIGS. 16 and 17 show RT-PCR data for S100A4 (FIG. 16) and collagen1A2 (FIG. 17), which are increased in the bleomycin treated mice (treated with saline control).

collagen1A2 = test: RT-PCR for collagen1A2 in bleomycin treated mice; type: in vivo; conditions: ICG-001 5 mgs/Kg/day s.c.
Text: as §1

[3] = test system: S100A4 (FSP-1, fibroblast specific protein-1); test: Western blot for S100A4 on whole cell lysates of cultured IPF fibroblasts; type: cell-based, human
Description: (§2) FIG. 20. FIG. 20 depicts a Western blots for S100A4 (also know as FSP-1 or fibroblast specific protein-1) and E-Cadherin performed on whole cell lysates of IPF patient fibroblasts cultured in RPMI1640+10% FBS for 2 days and treated with ICG-001.
(§3) Western blots for S100A4 (also know as FSP-1 or fibroblast specific protein-1) and E-Cadherin were performed on whole cell lysates (FIG. 20).

E-Cadherin = test: Western blot for E-Cadherin on whole cell lysates of cultured IPF patient fibroblasts; type: cell-based, human
Description: as §2, §3

Aquaporin 5 = Aquaporin 5 immunostaining of lung tissue in the bleomycin mouse model; type: in vivo, mice; conditions: bleomycin and ICG-001 versus bleomycin alone
Text: FIG. 22. […] Bleomycin alone, FIG. 22A; bleomycin and ICG-001, FIG. 22B; saline FIG. 22C.
The aquaporins are water channels expressed in a variety of cell types. Aquaporin 5 is involved in the transportation of water across the apical surface of the alveolar epithelium and the epithelia of the submucosal glands in the upper airway and nasopharynx. (Krane, C. M., P.N.A.S. 98:14192-4, 2001; Yang, F. J. Biol. Chem. 278:32173-80, 2003). Because aquaporin 5 is a marker of Type 1 (differentiated) lung epithelium, its expression was assayed in lung tissue created with bleomycin (FIG. 22A), bleomycin and ICG-001 (FIG. 22B), and saline (FIG. 22C), using the animal model as described in Example 2 (FIG. 15), and immunostaining with an antibody specific for Aquaporin 5.

[4] = bleomycin and ICG-001 versus bleomycin
[5] = bleomycin for 5 days, then ICG-001 5 mgs/Kg/day for 10 days from the sixth day
[6] = IPF patient fibroblasts cultured for 2 days

`O=C1[C@H](Cc2ccc(O)cc2)N2C(=O)CCN(C(=O)NCc3ccccc3)[C@H]2CN1Cc1cccc2ccccc12` [ICG-001] was tested, and the “bleomycin-induced TCF/β-catenin transcription (TCF/β-Catenin driven β-Galactosidase expression) blocked/reduced” value [1] was over 95%, the “alveolar fibrosis (lung sections stained for collagen)” value [2, 4] was “prevented” and the “interstitial fibrosis (lung sections stained for collagen)” value [2, 4] was “prevented”. The body weight ([2]; bleomycin for 5 days, then ICG-001 5 mgs/Kg/day for 10 days) was “regained normal body weight”, the “airway appearance in trichrome-stained lung sections” value [2, 5] was “the airway looks essentially normal” and the “collagen levels (trichrome stain)” value [2, 5] was “normal collagen levels”. For the same compound, the survival ([2]; bleomycin for 5 days, then ICG-001 5 mgs/Kg/day for 10 days, untreated controls did not survive) was “survived”, the “fibrosis over the 25 days of treatment” value ([2]; bleomycin mouse model, 25 days of treatment) was “reversed fibrosis” and the “disease progression, as judged by reduced mortality, histopathology and endogenous gene expression” value ([2]; bleomycin murine model, 5 mg/Kg/day) was “not only halted but reversed disease progression”. The “S100A4 message (RT-PCR)” value (S100A4) was “reduced essentially to negative control”, the “collagen1A2 message (RT-PCR)” value (collagen1A2) was “reduced essentially to negative control” and the “S100A4 expression (whole cell lysates)” value ([3]; ATCC IPF cells cultured in RPMI1640+10% FBS for 2 days) was “decreased”. For the same compound, the “S100A4 expression at the mRNA level” value ([3]; IPF patient fibroblasts) was “also true at the mRNA level”, the “S100A4 expression (Western blot, whole cell lysates)” value [3, 6] was “decreased” and the “E-cadherin expression at the mRNA level” value (E-Cadherin; IPF patient fibroblasts) was “also true at the mRNA level”. For the same compound, the “E-cadherin expression (Western blot, whole cell lysates)” value (E-Cadherin; [6]) was “increased” and the “aquaporin 5 expression (immunostaining, marker of Type 1 lung epithelium)” value (Aquaporin 5) was “greatly increased”.
